# Results reported in PMC13144739, “Global analysis of cancer cell responses to USP9X inhibition” (The EMBO Journal, 2026).
# Legend:
# [1] = molecular target: T1, USP9X catalytic domain (Homo sapiens, UniProt Q93008); assay: Ub-Rho cleavage assay; assay type: biochemical; details: relative to WEHI-553
# T1 construct: His/SUMO (pOPIN-S vector) (N, cleaved yes); made in house; host or cells: E. coli BL21
# T1 sequence (Q93008 1551-1970): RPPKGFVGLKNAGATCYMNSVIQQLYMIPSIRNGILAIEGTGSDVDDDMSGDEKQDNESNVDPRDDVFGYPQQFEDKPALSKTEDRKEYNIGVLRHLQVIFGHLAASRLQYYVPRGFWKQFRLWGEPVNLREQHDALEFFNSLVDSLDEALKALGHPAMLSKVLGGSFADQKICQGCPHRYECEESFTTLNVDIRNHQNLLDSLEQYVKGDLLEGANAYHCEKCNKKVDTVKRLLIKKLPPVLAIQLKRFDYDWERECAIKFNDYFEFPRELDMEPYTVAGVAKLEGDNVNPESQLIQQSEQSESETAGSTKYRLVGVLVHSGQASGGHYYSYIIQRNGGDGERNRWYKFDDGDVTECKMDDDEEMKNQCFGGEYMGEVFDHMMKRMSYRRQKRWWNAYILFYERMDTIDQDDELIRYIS
# Protocol: The reaction was stopped through the addition of 10 mM citric acid. The assay was performed in 384-well format with a total reaction volume of 16 µL. Data was collected using the ClarioSTAR plate reader (BMG Labtech) at an emission of 535 nm. […] IC50 values presented in our study are the mean of three independent biological repeats unless indicated otherwise.
# [2] = system: USP24; assay: DUBprofiler DUB selectivity panel, USP24; assay type: biochemical, human; details: 50 µM compound
# Protocol: UAF1 was added to the USP1, USP12 and USP46 reactions (with WDR20 additionally added to the USP12 and USP46 reactions), respectively. Ubiquitin was added to the USP5 reaction at KD. Proteasome-VS was added to the USP14 reaction at KD. OTUD5 p177S was used. The reaction for AMSH-LP was supplemented with Zinc.
# [3] = system: DLD-1 cells; assay: Colony formation assay, DLD-1; assay type: cell-based, human; details: 10 µM, 7–12 days
# Protocol: Cells were seeded at low density (200–4000 cells per well) after initial optimisation in a six-well tissue culture-treated plate (Falcon). Twenty-four hours post seeding, media was replaced, and the inhibitor was added. Cells were left to grow into colonies between 7 and 12 days, depending on the cell line. For analysis, the media was removed, and the cells were fixed with 10% (w/v) formalin for 10 min. Colonies were stained with crystal violet (Sigma-Aldrich, 0.5% [w/v] in 20% [v/v] MeOH) for 10 min and washed thrice with distilled H2O. Plates were imaged using the ChemiDoc imaging system (Bio-Rad) and analysed using the ImageJ ColonyArea plugin as described previously (Guzmán et al, [2014]).
smiles,measurement,setting,value
Cc1[nH]c2ccc(C(=O)N3CCN(S(=O)(=O)c4ccc5c(c4)OCCO5)CC3)cc2c1C [WEHI-092],improvement of IC50 towards USP9X by SAR,[1],> 16 fold
same,"inhibition of USP24, commercial panel",[2],not inhibited
same,"clonogenic potential, DLD-1",[3],strong decrease in proliferative capacity
